Results taken from ChEMBL document CHEMBL4354787, “Inhibitors of inosine 5'-monophosphate dehydrogenase as emerging new generation antimicrobial agents” (Medchemcomm, 2019).

Tests used:
[1] = biological target: Inosine-5'-monophosphate dehydrogenase (Mycobacterium tuberculosis (strain ATCC 25618 / H37Rv)) (UniProt P9WKI7); assay: Inhibition of Mycobacterium tuberculosis H37Rv IMPDH2 at 1 uM using IMP as substrate incubated for 20 mins in presence of NAD by UV spectrophotometric analysis relative to control
Sequence of Inosine-5'-monophosphate dehydrogenase (Mycobacterium tuberculosis (strain ATCC 25618 / H37Rv)) (P9WKI7 whole entry): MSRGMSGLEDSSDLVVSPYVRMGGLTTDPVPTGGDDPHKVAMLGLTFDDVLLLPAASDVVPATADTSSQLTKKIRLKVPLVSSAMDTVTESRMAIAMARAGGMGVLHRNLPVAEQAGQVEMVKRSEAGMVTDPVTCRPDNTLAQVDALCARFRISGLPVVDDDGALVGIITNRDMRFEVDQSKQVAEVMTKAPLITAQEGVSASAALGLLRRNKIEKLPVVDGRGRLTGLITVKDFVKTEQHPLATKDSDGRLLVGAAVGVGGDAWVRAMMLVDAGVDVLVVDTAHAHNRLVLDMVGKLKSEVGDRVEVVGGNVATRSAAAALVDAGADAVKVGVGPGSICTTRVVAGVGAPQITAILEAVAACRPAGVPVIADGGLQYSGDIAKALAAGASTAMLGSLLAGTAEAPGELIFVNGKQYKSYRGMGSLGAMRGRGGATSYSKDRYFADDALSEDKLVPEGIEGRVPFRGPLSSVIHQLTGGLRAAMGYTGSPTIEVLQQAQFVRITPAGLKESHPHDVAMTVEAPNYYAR

[2] = Inhibition of Francisella tularensis IMPDH expressed in Escherichia coli BL21(DE3) deletion in guaB gene using IMP as substrate preincubated for 10 mins followed by substrate addition in presence of NAD by spectrophotometer
[3] = Inhibition of Mycobacterium tuberculosis IMPDH2
[4] = Inhibition of Helicobacter pylori IMPDH
[5] = biological target: Inosine-5'-monophosphate dehydrogenase 2 (Homo sapiens) (UniProt P12268); assay: Inhibition of human IMPDH2 relative to control; conditions: concentration not given here
Sequence of Inosine-5'-monophosphate dehydrogenase 2 (Homo sapiens) (P12268 2-514 limits assumed): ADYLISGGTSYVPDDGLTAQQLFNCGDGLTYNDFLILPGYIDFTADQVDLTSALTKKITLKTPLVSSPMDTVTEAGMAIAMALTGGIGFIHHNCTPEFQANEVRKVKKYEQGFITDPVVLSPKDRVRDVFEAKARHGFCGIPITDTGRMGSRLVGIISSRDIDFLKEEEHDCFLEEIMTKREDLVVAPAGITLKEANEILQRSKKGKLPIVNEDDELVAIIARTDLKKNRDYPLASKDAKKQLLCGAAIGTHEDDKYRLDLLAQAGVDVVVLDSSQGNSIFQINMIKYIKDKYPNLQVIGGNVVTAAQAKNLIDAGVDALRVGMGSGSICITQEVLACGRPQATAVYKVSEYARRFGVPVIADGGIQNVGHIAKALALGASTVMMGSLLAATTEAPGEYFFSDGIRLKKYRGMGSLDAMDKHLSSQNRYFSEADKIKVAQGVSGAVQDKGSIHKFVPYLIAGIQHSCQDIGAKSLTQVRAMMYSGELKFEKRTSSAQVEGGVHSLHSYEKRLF

[6] = Inhibition of Helicobacter pylori IMPDH using IMP as substrate preincubated for 10 mins followed by addition of substrate and measured after 45 mins in presence of NAD by fluorescence based assay

With `O=C(Nc1ccc(Cl)c(Cl)c1)Nc1ccc(Br)cc1F` the inhibition [1] was over 90%.
Molecule `C[C@H](Oc1cccc2ccccc12)C(=O)Nc1ccc2oc(-c3ccncc3)nc2c1` has a Ki [2] of 30 nM.
`O=C(Nc1cccc([N+](=O)[O-])c1)Nc1ccc(Cl)c(C(F)(F)F)c1` showed an inhibition [1] of over 90%.
Work on `C[C@H](Oc1cccc(Cl)c1Cl)C(=O)Nc1ccc2oc(-c3ccc(C(=O)NO)cc3)nc2c1` yielded a Ki [2] of 13 nM.
Work on `Cc1ccc([N+](=O)[O-])cc1NC(=O)Nc1cccc(Cl)c1` yielded an inhibition [1] of over 90%.
For `CC(C(=O)Nc1ccc2c(c1)COC2=O)c1ccc(C(=O)c2ccccc2)cc1` (stereo not drawn), the IC50 [3] was 6200 nM.
With `C[C@H](Oc1cccc(Cl)c1Cl)C(=O)Nc1ccc2oc(-c3ccc(C(=O)O)cc3)nc2c1` the Ki [2] was 15.5 nM.
With `O=C(Cn1cc(C(=O)Nc2cccnc2)c2ccccc21)Nc1ccc(Br)cc1` the IC50 [4] was 2200 nM.
Work on `COc1c(C)c2c(c(O)c1C/C=C(\C)CCC(=O)O)C(=O)OC2` [MYCOPHENOLIC ACID] yielded an IC50 [3] of 27200 nM.
Work on `O=C(Cc1ccc(F)c2ccccc12)Nc1ccc2c(c1)COC2=O` yielded an IC50 [3] of 3200 nM and an inhibition [5] of under 0.1%.
For `COc1cccc(Cn2cc(COc3ccc(-c4nnc(C)o4)cc3)nn2)c1`, the IC50 [6] was 4060 nM.
In the case of `C[C@H](Oc1cccc(Cl)c1Cl)C(=O)Nc1ccc2oc(-c3ccncc3)nc2c1`, the Ki [2] is reported as 22 nM.
